The target in experiment [1] is T1, S1P1 (Homo sapiens, UniProt P21453). The experiment can be described thus: 35S-GTPγS binding on membranes of CHO cells expressing S1P1. The experiment is classed as biochemical. Conditions: read-out: S1P1/GTPG EC50. As to the method: (§1) Membranes were prepared from CHO cells expressing S1P1 or S1P3 for use in ligand and […] binding studies. Cells were suspended in 50 mM TRIS, pH 7.4, 2 mM EDTA, 250 mM Sucrose (buffer A) and 1× Complete protease inhibitor cocktail (Roche), and disrupted at 4° C. by N2 decompression using a cell disruption bomb (Parr Instrument). Following centrifugation at 1000 RPM for 10 min at 4° C., the supernatant was diluted (2×) in buffer A and centrifuged again at 19000 RPM for 75 min at 4° C. The pellet was then suspended in 10 mM HEPES, pH 7.4, 1 mM EDTA, 250 mM Sucrose (Buffer B), and 1× Complete EDTA-free protease inhibitor cocktail and homogenized using a potter. Membranes were flash frozen in liquid N2 and stored at −80° C.
(§2) Membranes (1 to 10 μg protein) prepared as described above, were incubated in 96-well Scintiplates (PerkinElmer) with test compounds diluted in DMSO, in 140 μl of 20 mM HEPES, pH 7.4, 10 mM MgCl2, 2 μg/well Saponin, 0.2% fatty acid free BSA (Assay buffer), 125 mM NaCl and 1.5 μM GDP. The assay was initiated with the addition of 60 μl of 1.5 nM [35S]-GTPγS (1100 Ci/mmol; GE Healthcare) in assay buffer. After 60 min incubation at 30° C. on a shaker, plates were centrifuged for 10 min at 2000 RPM. Supernatant was discarded and membrane bound radioactivity was measured on a PerkinElmer 1450 MicroBeta counter. Triplicate samples were averaged and expressed as % response relative to S1P activation in absence of compound (n=2).
(§3) The “potency” or the “activity” of the compounds is determined by the EC50 values as evaluated in the above described 35S-GTPγS binding assay.
Target sequence in this assay (P21453 whole entry, species assumed): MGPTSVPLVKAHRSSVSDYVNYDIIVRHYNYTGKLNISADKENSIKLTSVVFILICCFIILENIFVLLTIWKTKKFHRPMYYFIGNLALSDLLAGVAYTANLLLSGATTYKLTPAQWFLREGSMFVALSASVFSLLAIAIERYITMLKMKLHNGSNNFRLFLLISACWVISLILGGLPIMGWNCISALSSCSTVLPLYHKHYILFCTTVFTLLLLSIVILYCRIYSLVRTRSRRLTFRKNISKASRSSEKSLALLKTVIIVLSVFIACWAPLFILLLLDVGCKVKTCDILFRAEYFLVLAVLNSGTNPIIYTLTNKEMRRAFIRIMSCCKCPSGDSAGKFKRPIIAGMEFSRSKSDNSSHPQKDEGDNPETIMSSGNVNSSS

For experiment [2], the target named is T1, S1P1. The experiment can be described thus: Receptor binding assay, [33P]sphingosine 1-phosphate competition, S1P1 membranes, WGA SPA beads. A digest of the protocol: (§4)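 Competition of [33P]S1P ([…]) on CHO cell membranes with WGA SPA beads in 50 mM HEPES pH 7.5, 5 mM MgCl2, 100 mM NaCl, 0.4% fatty acid-free BSA; 60 min at RT. Triplicates normalised to total binding and nonspecific binding (1000-fold excess unlabeled S1P).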
Target sequence in this assay (P21453 whole entry, species assumed): as above

In experiment [3] the target is T2, S1P3 (Homo sapiens, UniProt Q99500). The experiment can be described thus: 35S-GTPγS binding on membranes of CHO cells expressing S1P3. The class given is biochemical. Conditions: read-out: S1P3/GTPG EC50. As to the method: as §1, §2, §3
T2 sequence (Q99500 whole entry, species assumed): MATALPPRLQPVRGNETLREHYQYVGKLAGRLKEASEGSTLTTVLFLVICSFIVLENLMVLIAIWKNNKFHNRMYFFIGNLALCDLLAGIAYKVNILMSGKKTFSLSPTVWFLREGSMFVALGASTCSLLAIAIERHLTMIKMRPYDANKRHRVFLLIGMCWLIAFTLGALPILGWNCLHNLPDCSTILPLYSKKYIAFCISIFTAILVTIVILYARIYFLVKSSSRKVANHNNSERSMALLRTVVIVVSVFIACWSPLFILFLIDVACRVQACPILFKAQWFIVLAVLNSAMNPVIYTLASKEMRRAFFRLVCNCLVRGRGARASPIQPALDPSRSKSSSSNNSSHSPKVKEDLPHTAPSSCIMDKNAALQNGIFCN
For orientation: GTPγS is a poorly hydrolysed GTP analogue; its binding reports G protein activation.

For experiment [4], the target named is T1, S1P1. The experiment can be described thus: S1P1 internalization assay in S1P1-U2OS cells (S1P1-EGFP), cell imaging. The class given is cell-based. Details: host or cells: U2OS (human bone osteosarcoma epithelial cells), CMV promoter, geneticin selection. Conditions: 1 hour incubation. A digest of the protocol:
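U2OS cells stably expressing human S1P1-EGFP, plated overnight in 1% FCS medium, then serum-starved 2 h in 0.1% fatty-acid-free BSA before 1 h compound exposure at 37 °C. After PFA fixation and Hoechst staining, internalization imaged as EGFP spot count per nucleus.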
Target sequence in this assay (P21453 whole entry): as the sequence (P21453 whole entry, species assumed) above

Experiment [5] addresses T2, S1P3. The experiment can be described thus: Receptor binding assay, [33P]sphingosine 1-phosphate competition, S1P3 membranes, WGA SPA beads. The essentials: as §4
Where [6] appears, read: 96 well-plate, read-out: S1P1 binding Ki (M) (96 well-plate).
The mark [7] stands for this setting: 384 well-plate, read-out: S1P1 binding Ki (M) (384 well-plate).
[8] abbreviates: 384 well-plate, read-out: S1P3 binding Ki (M) (384 well-plate).

Molecules are shown by their SMILES. Structures can show the parent of a compound that is named as a salt. Where two headings read alike, the source gives them in different places.

The Ki is a dissociation constant, usually derived from enzyme kinetics or from competition with a known ligand. `COCc1cc(-c2nc(-c3cccc(CN(C)CCC(=O)O)c3)no2)ccc1N1CCCCC1C` (stereo not drawn) [Example 2, N-(3-{5-[3-(methoxymethyl)-4-(2-methylpiperidin-1-yl)phenyl]-1,2,4-oxadiazol-3-yl}benzyl)-N-methyl-beta-alanine, hydrochloride salt]: the EC50 on S1P1 [1] stood at 0.287 nM; on S1P3 [3], 44.8 nM. In addition, at S1P1 [2] (setting [6]), the Ki was found to be 1.36e-10 M.
As for `COCc1cc(-c2nc(-c3ccc(C(=O)NCCC(=O)O)c(F)c3)no2)ccc1N1CCCCC1C` (stereo not drawn) [Example 3, N-(2-fluoro-4-{5-[3-(methoxymethyl)-4-(2-methylpiperidin-1-yl)phenyl]-1,2,4-oxadiazol-3-yl}benzoyl)-beta-alanine], the EC50 on S1P1 [1] is 8.43 nM; on S1P1 [4], 7.76 nM. At S1P1 [2] (setting [6]), the Ki is 8.32e-10 M.
In the case of `COCc1cc(-c2nc(-c3cc(F)c(F)c(OCCCC(=O)O)c3)no2)ccc1-c1ccccc1C` [Example 5, 4-(2,3-difluoro-5-{5-[2-(methoxymethyl)-2′-methylbiphenyl-4-yl]-1,2,4-oxadiazol-3-yl}phenoxy)butanoic acid], the EC50 on S1P1 [1] amounted to 22.7 nM; at S1P1 [4] it was 157 nM. Also, the inhibitory constant (Ki) on S1P1 [2] (setting [6]) worked out at 4.09e-09 M; at S1P1 [2] (setting [7]), 1.45e-08 M.
Regarding `Cc1ccccc1-c1ccc(-c2nc(-c3cccc(S(C)(=O)=O)c3)no2)cc1CN(C)C` [Example 8, N,N-dimethyl-1-(2′-methyl-4-{3-[3-(methylsulfonyl)phenyl]-1,2,4-oxadiazol-5-yl}biphenyl-2-yl)methanamine], the EC50 at S1P1 [1] was 11.7 nM.
For the molecule `COCc1cc(-c2nc(-c3cccc(COCCC(=O)O)c3)no2)ccc1N1CCCCC1C` (stereo not drawn) [Example 9, 3-[4(3-{5-[3-(methoxymethyl)-4-(2-methylpiperidin-1-yl)phenyl]-1,2,4-oxadiazol-3-yl}benzyl)oxy]propanoic acid, hydrochloride salt], the EC50 at S1P1 [1] stood at 3.85 nM. The Ki at S1P1 [2] (setting [6]) was 8.04e-10 M.
With `COCc1cc(-c2nc(-c3ccc(C(=O)NCCC(=O)O)c(Cl)c3)no2)ccc1-c1ccccc1C` [Example 15, N-(2-chloro-4-{5-[2-(methoxymethyl)-2′-methylbiphenyl-4-yl]-1,2,4-oxadiazol-3-yl}benzoyl)-beta-alanine], the results for the EC50 at S1P1 [1] and on S1P3 [3] were 20.9 nM and 553 nM, respectively. Further, on S1P1 [2] (setting [6]), the inhibition constant Ki was 1.06e-09 M.
Consider `COCc1cc(-c2nc(-c3cccc(NCC(O)CO)c3)no2)ccc1-c1ccccc1C` (stereo not drawn) [Example 22, 3-[(3-{5-[2-(methoxymethyl)-2′-methylbiphenyl-4-yl]-1,2,4-oxadiazol-3-yl}phenyl)amino]propane-1,2-diol], for which the Ki at S1P1 [2] (setting [6]) was found to be 7.11e-10 M. For the same molecule, the EC50 at S1P3 [3] came to 293 nM.
Regarding `COCc1cc(-c2nc(-c3cccc(CC(=O)NCC(=O)OC)c3)no2)ccc1-c1ccccc1C` [Example 24, methyl N-[(3-{5-[2-(methoxymethyl)-2′-methylbiphenyl-4-yl]-1,2,4-oxadiazol-3-yl}phenyl)acetyl]glycinate], the EC50 at S1P1 [1] is 2.11 nM. Also, the Ki at S1P1 [2] (setting [6]) came to 9.12e-10 M.
Regarding `COCc1cc(-c2nc(-c3cccc(CC(=O)NCC(=O)O)c3)no2)ccc1-c1ccccc1C` [Example 26, N-[(3-{5-[2-(methoxymethyl)-2′-methylbiphenyl-4-yl]-1,2,4-oxadiazol-3-yl}phenyl)acetyl]glycine], on S1P1 [1], the EC50 was 10.7 nM.
Turning to `COCc1cc(-c2nc(-c3ccc(C(=O)NCC(O)CO)c(F)c3)no2)ccc1-c1ccccc1C` (stereo not drawn) [Example 27, N-(2,3-dihydroxypropyl)-2-fluoro-4-{5-[2-(methoxymethyl)-2′-methylbiphenyl-4-yl]-1,2,4-oxadiazol-3-yl}benzamide], at S1P1 [1], the EC50 turned out to be 17.8 nM.
Regarding `Cc1ccccc1-c1ccc(-c2nc(-c3cccc(CN(C)CC(=O)O)c3)no2)cc1C` [Example 132, N-{3-[5-(2,2′-dimethylbiphenyl-4-yl)-1,2,4-oxadiazol-3-yl]benzyl}-N-methylglycine, hydrochloride salt], the inhibition constant (Ki) at S1P3 [5] (setting [8]) came out at 1.64e-06 M; on S1P1 [2] (setting [7]) it was 3.65e-09 M. In addition, on S1P1 [4], the EC50 was found to be 235 nM.
Consider `Cc1ccccc1-c1ccc(-c2nc(-c3cc(F)cc(CN(C)CC(=O)O)c3)no2)cc1C` [Example 133, N-{3-[5-(2,2′-dimethylbiphenyl-4-yl)-1,2,4-oxadiazol-3-yl]-5-fluorobenzyl}-N-methylglycine, hydrochloride salt], for which the Ki is 4.72e-07 M at S1P3 [5] (setting [8]) and 2.81e-09 M on S1P1 [2] (setting [7]). Moreover, the EC50 at S1P1 [4] came to 42.2 nM.
`COC(C)c1cc(-c2nc(-c3ccc(CN(C)CC(=O)O)cc3)no2)ccc1-c1ccccc1C` (stereo not drawn) [Example 140, N-(4-{5-[2-(1-methoxyethyl)-2′-methylbiphenyl-4-yl]-1,2,4-oxadiazol-3-yl}benzyl)-N-methylglycine, hydrochloride salt]: the inhibition constant (Ki) at S1P3 [5] (96 well-plate, read-out: S1P3 binding Ki (M) (96 well-plate)) was 1.64e-07 M; at S1P3 [5] (setting [8]) it was 3.89e-07 M; on S1P1 [2] (setting [6]), 1.89e-10 M; at S1P1 [2] (setting [7]) it was 9.81e-10 M. For the same molecule, the EC50 at S1P1 [4] amounted to 3.75 nM.
Consider `Cc1ccccc1-c1ccc(-c2nc(-c3ccc(CNCCCC(=O)O)cc3)no2)cc1C(F)(F)F` [Example 142, 4-[(4-{5-[2′-methyl-2-(trifluoromethyl)biphenyl-4-yl]-1,2,4-oxadiazol-3-yl}benzyl)amino]butanoic acid], for which the Ki at S1P3 [5] (setting [8]) turned out to be 3.73e-07 M; at S1P1 [2] (setting [7]), 5.49e-10 M. For the same molecule, the EC50 on S1P1 [4] was determined as 0.802 nM.
On the same counts, the results for `COCc1cc(-c2nc(-c3ccc(CN(C)CC(=O)O)cc3C(F)(F)F)no2)ccc1-c1ccccc1C` [Example 143, 2-((4-(5-(2-(methoxymethyl)-2′-methylbiphenyl-4-yl)-1,2,4-oxadiazol-3-yl)-3-(trifluoromethyl)benzyl)(methyl)amino)acetic acid] are 1.83e-06 M, 2.32e-09 M and 85.5 nM.
On the same counts, the results for `COCc1cc(-c2nc(-c3ccc(CN(C)CC(=O)O)cc3Cl)no2)ccc1-c1ccccc1C` [Example 144, 2-((4-(5-(2-(methoxymethyl)-2′-methylbiphenyl-4-yl)-1,2,4-oxadiazol-3-yl)-3-chlorobenzyl)(methyl)amino)acetic acid] are 3.55e-07 M, 1.73e-09 M and 25.7 nM.
Taken in the same sequence, the figures for `COCc1cc(-c2nc(-c3ccc(CN(C)CC(=O)O)cc3F)no2)ccc1-c1ccccc1C` [Example 146, 2-((3-fluoro-4-(5-(2-(methoxymethyl)-2′-methylbiphenyl-4-yl)-1,2,4-oxadiazol-3-yl)benzyl)(methyl)amino)acetic acid, hydrochloride salt] were 3.68e-07 M, 9.36e-10 M and 33.6 nM.
As to `COCc1cc(-c2nc(-c3cc(F)c(CNCC(=O)O)c(F)c3)no2)ccc1-c1ccccc1C` [Example 147, 2-(2,6-difluoro-4-(5-(2-(methoxymethyl)-2′-methylbiphenyl-4-yl)-1,2,4-oxadiazol-3-yl)benzylamino)acetic acid, hydrochloride salt], the Ki was 1.35e-07 M at S1P3 [5] (setting [8]) and 6.95e-10 M at S1P1 [2] (setting [7]). On S1P1 [4], this molecule returned an EC50 of 1.54 nM.
On the same counts, the results for `COCc1cc(-c2nc(-c3ccc(CN(C)CC(=O)O)c(F)c3F)no2)ccc1-c1ccccc1C` [Example 149, 2-((2,3-difluoro-4-(5-(2-(methoxymethyl)-2′-methylbiphenyl-4-yl)-1,2,4-oxadiazol-3-yl)benzyl)(methyl)amino)acetic acid, hydrochloride salt] are 1.48e-07 M, 1.26e-09 M and 9.54 nM.
On the same counts, the results for `COCc1cc(-c2nc(-c3cc(F)c(CN(C)CC(=O)O)c(F)c3)no2)ccc1-c1ccccc1C` [Example 151, 2-((2,6-difluoro-4-(5-(2-(methoxymethyl)-2′-methylbiphenyl-4-yl)-1,2,4-oxadiazol-3-yl)benzyl)(methyl)amino)acetic acid, hydrochloride salt] are 3.9e-07 M, 3.53e-09 M and 21.6 nM.
